Measurements as given in US4703058A, “β-methylene furanethanamines and use as anti-hypertensive agents” (Merrell Dow Pharmaceuticals Inc., priority 1986, dated 1987).

What was measured:
[1] = molecular target: T1, dopamine β-hydroxylase (DBH) (Bos taurus, UniProt P15101); test: DBH inhibitory activity - in vitro (time-dependent inactivation; tyramine as substrate, oxygen uptake by polarographic electrode); assay type: biochemical
T1 sequence (P15101 1-610): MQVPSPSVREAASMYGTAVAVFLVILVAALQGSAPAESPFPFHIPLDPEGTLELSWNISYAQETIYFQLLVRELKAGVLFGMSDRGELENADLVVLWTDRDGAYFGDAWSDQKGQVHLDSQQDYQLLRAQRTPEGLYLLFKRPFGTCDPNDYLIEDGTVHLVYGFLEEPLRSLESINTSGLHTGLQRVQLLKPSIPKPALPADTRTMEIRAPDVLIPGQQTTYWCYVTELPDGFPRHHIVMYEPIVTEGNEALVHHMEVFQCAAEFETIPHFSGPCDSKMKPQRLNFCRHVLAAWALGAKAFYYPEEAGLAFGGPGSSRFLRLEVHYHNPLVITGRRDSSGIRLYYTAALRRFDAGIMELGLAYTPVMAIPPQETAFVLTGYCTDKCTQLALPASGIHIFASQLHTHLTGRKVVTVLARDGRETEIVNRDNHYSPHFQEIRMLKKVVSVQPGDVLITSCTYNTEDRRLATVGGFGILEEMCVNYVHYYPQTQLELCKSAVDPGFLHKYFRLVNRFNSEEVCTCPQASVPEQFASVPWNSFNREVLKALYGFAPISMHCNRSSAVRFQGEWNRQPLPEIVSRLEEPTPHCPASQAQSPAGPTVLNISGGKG
Protocol: The dopamine β-hydroxylase inhibitory properties of the compounds of this invention can readily be determined by standard and well known procedures such as those procedures set forth in U.S. Pat. No. 4,415,191. For example, determination of whether the DBH inhibition allows time-dependent kinetics is exemplified by the procedure wherein enzymatic oxygenation by DBH is determined in aqueous solution in the presence of molecular oxygen, an electron donor such as ascorbate, and the necessary cofactors for the enzyme at a pH of 5 and a temperature of 20°-40° C., preferrably 37° C. The test compound is added at the desired concentration, and the system is incubated. At different time intervals, aliquots are taken and DBH activity is measured using tyramine as the substrate and the reaction followed by measuring the oxygen uptake using a polarographic electrode and an oxygen monitor by the method of S. May et al., J. Biol. Chem. 256, 2258 (1981). The inhibition constants for the inactivation of DBH by each compound are then determined by conventional procedures such as the method of Kitz and Wilson, J. Biol. Chem. 237, 3245 (1962). When the compound shown in Table I was tested according to the above described procedure, the DBH inhibitory activity increased as a function of the time of incubation. The initial rate of decrease of activity increased with increasing concentration of inhibitor. The results in Table I indicate that β-methylene-2-furanethanamine is potent as illustrated by the rapid rate of inactivation (kinact) and low inhibition contant (KI).

hypertensive rats = test: Antihypertensive activity - in vivo (hypertensive rats, blood pressure monitored continuously)
Protocol: The ability of the compounds of this invention to lower blood pressure can be determined in vivo using hypertensive rats according to standard and well known procedures. The test compound is administered intraperitoneally (ip) or orally (po) to rats and the blood pressure monitored continuously. Since DBH is a major enzyme in the synthetic pathway of the catecholamines, it would be expected that the presence of an inhibitor would act to decrease the amount of catecholamines produced, and thereby have an antihypertensive effect.

SMILES: C=C(CN)c1ccco1 [β-Methylene-2-Furanethanamine]
- DBH inhibition, result in words (potency) ([1]; in words, from Table I): potent
- Ki ([1]; inactivation of DBH, Kitz and Wilson method, pH 5, 20°-40° C., preferably 37° C., tyramine substrate): 8 mM
- kinact ([1]; rate of inactivation of DBH, Kitz and Wilson method, pH 5, 20°-40° C., preferably 37° C., tyramine substrate): 6.67e-05 s⁻¹
- Maximum % Change Mean Blood Pressure (hypertensive rats; 10 mg/kg (ip)): 18%
- Maximum % Change Mean Blood Pressure (hypertensive rats; 30 mg/kg (ip)): 32%
